SMILES strings stand for the structures.

These results are taken from ChEMBL document CHEMBL3228010, “Potential antitumor agents. 29. Quantitative structure-activity relationships for the antileukemic bisquaternary ammonium heterocycles” (J Med Chem, 1979).

Series [1] in a line: Lipophilic-hydrophilic balance, Rm of the compound by partition chromatography. In kind it is physicochemical.
Series [2] has as its system L1210. Kind of series: Antitumor activity against mouse L1210 cells […] in ip dosed C3H X DBA2 F1 hybrid mouse on day 0 and dosed at LD10 level once daily on days 1 to 5 assessed as increase in life span relative to control. In kind it is functional.
A further series deals with Mus musculus. Kind of series: Toxicity in ip dosed C3H X DBA2 F1 hybrid mouse […] with mouse L1210 cells on day 0 and dosed once daily on days 1 to 5 measured after 50 days. In kind it is organism-based. The following applies: in vivo, 1200 h.
Series [3] relates to L1210. As to the kind of experiment: Antitumor activity against mouse L1210 cells […] in ip dosed C3H X DBA2 F1 hybrid mouse on day 0 and dosed once daily on days 1 to 5 assessed as increase in life span relative to control. In kind it is functional.

Molecule `C[n+]1cccc(NC(=O)c2ccc(NC(=O)c3ccc(C(=O)Nc4ccc(C(=O)Nc5ccc[n+](C)c5)cc4)cc3)cc2)c1.Cc1ccc(S(=O)(=O)[O-])cc1.Cc1ccc(S(=O)(=O)[O-])cc1` displayed a Rm in series [1] of -0.74. Moreover, in the series with L1210 [2], the “log(ILSmax)” value is 2.13. For the same molecule, the LD10 in the series on Mus musculus is 56 mg/kg. The D40 in the series on L1210 [3] is 5.9 mg/kg.
On the same counts, the results for `CCC[n+]1ccc(Nc2ccc(NC(=O)c3ccc(Nc4cc[n+](CCC)c5ccccc45)cc3N)cc2)cc1.[I-].[I-]` are 0.71, 1.6, 24 mg/kg and 24 mg/kg.
`CCC[n+]1cccc2cc(NC(=O)c3ccc(C(=O)Nc4ccc5c(ccc[n+]5CCC)c4)nc3)ccc21.Cc1ccc(S(=O)(=O)[O-])cc1.Cc1ccc(S(=O)(=O)[O-])cc1`: in series [1], the Rm is recorded as 0.05. Moreover, in the series on L1210 [2], the “log(ILSmax)” value turned out to be 1.51. In the series with Mus musculus, the LD10 is 16 mg/kg. Also, in the series with L1210 [3], the D40 was 14 mg/kg.
`CC[n+]1cccc(NC(=O)c2ccc(NC(=O)c3ccc(C(=O)Nc4ccc(C(=O)Nc5ccc[n+](CC)c5)cc4)c(OC)c3)cc2)c1.Cc1ccc(S(=O)(=O)[O-])cc1.Cc1ccc(S(=O)(=O)[O-])cc1` registered a Rm in series [1] of 0.55. Moreover, the “log(ILSmax)” value in the series with L1210 [2] worked out at 1.85. Further, in the series on Mus musculus, the LD10 came out at 20 mg/kg. The D40 in the series with L1210 [3] was determined as 18 mg/kg.
On the same counts, the results for `CCC[n+]1cc(-c2ccc(NC(=O)c3ccc(Nc4cc[n+](CCC)c5ccccc45)cc3)cc2)c(N)nc1N.[I-].[I-]` are 0.68, 1.85, 40 mg/kg and 15.8 mg/kg.
For `CC[n+]1c(C)cc(Nc2ccc(NC(=O)c3ccc(C(=O)Nc4ccc(Nc5cc(C)[n+](CC)c(N)n5)cc4)cc3)cc2)nc1N.Cc1ccc(S(=O)(=O)[O-])cc1.Cc1ccc(S(=O)(=O)[O-])cc1`, the Rm in series [1] is recorded as -0.4. Moreover, the “log(ILSmax)” value in the series on L1210 [2] was found to be 2.09. The molecule further registered an LD10 with Mus musculus of 200 mg/kg. The D40 with L1210 [3] is 69 mg/kg.
In turn, `CC[n+]1cccc(NC(=O)c2ccc(NC(=O)C34CCC(C(=O)Nc5ccc(C(=O)Nc6ccc[n+](CC)c6)cc5)(CC3)CC4)cc2)c1.Cc1ccc(S(=O)(=O)[O-])cc1.Cc1ccc(S(=O)(=O)[O-])cc1` showed a Rm in series [1] of 0.59. Moreover, the “log(ILSmax)” value in the series with L1210 [2] was 1.65. This molecule also came in with an LD10 in the series with Mus musculus of 27 mg/kg. In the series on L1210 [3], the D40 was 18 mg/kg.
In the case of `CCC[n+]1ccc(Nc2ccc(NC(=O)c3ccc(C(=O)Nc4ccc(Nc5cc[n+](CCC)cc5)cc4)cc3)cc2)cc1.Cc1ccc(S(=O)(=O)[O-])cc1.Cc1ccc(S(=O)(=O)[O-])cc1`, the Rm in series [1] is 0.81. Besides, the “log(ILSmax)” value in the series with L1210 [2] came to 1.99. Besides, the LD10 in the series on Mus musculus was found to be 4.1 mg/kg. Besides, the D40 in the series with L1210 [3] was 0.6 mg/kg.
In the case of `CC[n+]1cccc(-c2ccc(NC(=O)/C=C/c3ccc(C(=O)Nc4ccc(-c5ccc(-c6ccc(-c7ccc[n+](CC)c7)cc6)cc5)cc4)cc3)cc2)c1.Cc1ccc(S(=O)(=O)[O-])cc1.Cc1ccc(S(=O)(=O)[O-])cc1`, in series [1], the Rm is listed as -0.3. Besides, in the series with L1210 [2], the “log(ILSmax)” value worked out at 2.25. The LD10 with Mus musculus was 60 mg/kg. Further, in the series with L1210 [3], the D40 turned out to be 5.2 mg/kg.
In series [1], `CC[n+]1cc(-c2ccc(NC(=O)c3ccc(Nc4cc[n+](CC)c5ccccc45)cc3)cc2)c(N)nc1N.[I-].[I-]` yielded a Rm of 0.45. The “log(ILSmax)” value with L1210 [2] was found to be 2.11. In addition, the LD10 with Mus musculus came to 32 mg/kg. In the series on L1210 [3], the D40 is 3.3 mg/kg.
For `Cc1cc(Nc2ccc(C(=O)Nc3ccc(Nc4cc[n+](C)cc4)cc3)c(N)c2)c2cc(N)ccc2[n+]1C.[I-].[I-]` the same measures were 0.16, 2.2, 110 mg/kg and 8.4 mg/kg.
`C[n+]1cccc2cc(NC(=O)c3ccc(-c4ccc(-c5ccc(-c6ccc(C(=O)Nc7ccc8c(ccc[n+]8C)c7)cc6)cc5)cc4)cc3)ccc21.Cc1ccc(S(=O)(=O)[O-])cc1.Cc1ccc(S(=O)(=O)[O-])cc1` had a Rm in series [1] of -0.52. For the same molecule, the “log(ILSmax)” value with L1210 [2] amounted to 1.9. In addition, the LD10 in the series on Mus musculus is 65 mg/kg. Moreover, the D40 in the series on L1210 [3] was found to be 10 mg/kg.
In series [1], `CCCC[n+]1cccc2cc(NC(=O)c3ccc(NC(=O)c4ccc(C(=O)Nc5ccc6c(ccc[n+]6CCCC)c5)cc4)cc3)ccc21.Cc1ccc(S(=O)(=O)[O-])cc1.Cc1ccc(S(=O)(=O)[O-])cc1` yielded a Rm of 0.26. The “log(ILSmax)” value with L1210 [2] is given as 1.91. The LD10 with Mus musculus came to 100 mg/kg. The D40 in the series with L1210 [3] worked out at 41 mg/kg.
With `CCC[n+]1cccc(NC(=O)c2ccc(NC(=O)/C=C/c3ccc(C(=O)Nc4ccc(C(=O)Nc5ccc[n+](CCC)c5)cc4)cc3)cc2)c1.Cc1ccc(S(=O)(=O)[O-])cc1.Cc1ccc(S(=O)(=O)[O-])cc1`, the Rm in series [1] is given as -0.2. For the same molecule, the “log(ILSmax)” value in the series with L1210 [2] stood at 1.95. Also, the LD10 in the series on Mus musculus is 46 mg/kg. For the same molecule, in the series with L1210 [3], the D40 is 11.5 mg/kg.
Consider `CC[n+]1cccc(NC(=O)c2ccc(NC(=O)/C=C/c3ccc(C(=O)Nc4ccc(C(=O)Nc5ccc[n+](CC)c5)cc4)cc3)cc2)c1.Cc1ccc(S(=O)(=O)[O-])cc1.Cc1ccc(S(=O)(=O)[O-])cc1`, for which the Rm in series [1] is given as -0.58. Moreover, the “log(ILSmax)” value in the series with L1210 [2] is recorded as 1.88. Besides, the LD10 with Mus musculus is 55 mg/kg. Besides, the D40 with L1210 [3] was found to be 22 mg/kg.
For `CCC[n+]1cc(-c2ccc(NC(=O)c3ccc(Nc4cc[n+](CCC)c5ccc(N)cc45)cc3N)cc2)c(N)nc1N.Cc1ccc(S(=O)(=O)[O-])cc1.Cc1ccc(S(=O)(=O)[O-])cc1` the same measures were 0.56, 2.03, 50 mg/kg and 13.7 mg/kg.
On to `CCCC[n+]1cccc2cc(NC(=O)c3ccc(C(=O)Nc4ccc5c(ccc[n+]5CCCC)c4)cc3)ccc21.Cc1ccc(S(=O)(=O)[O-])cc1.Cc1ccc(S(=O)(=O)[O-])cc1`, for which the Rm in series [1] turned out to be 0.67. Also, the “log(ILSmax)” value with L1210 [2] is reported as 2.04. In the series with Mus musculus, this molecule showed an LD10 of 59 mg/kg. Further, the D40 with L1210 [3] was 25 mg/kg.
Molecule `CC[n+]1cccc2cc(NC(=O)COc3ccc(C(=O)Nc4ccc5c(ccc[n+]5CC)c4)cc3)ccc21.Cc1ccc(S(=O)(=O)[O-])cc1.Cc1ccc(S(=O)(=O)[O-])cc1` showed a Rm in series [1] of -0.11. Besides, the “log(ILSmax)” value in the series on L1210 [2] came out at 1.4. Moreover, the LD10 in the series on Mus musculus stood at 4 mg/kg. The D40 in the series with L1210 [3] was determined as 4 mg/kg.
In series [1], `CCC[n+]1ccc(-c2ccc(-c3ccc(-c4ccc(NC(=O)c5ccc(C(=O)Nc6ccc(-c7ccc(-c8ccc(-c9cc[n+](CCC)cc9)cc8)cc7)cc6)cc5)cc4)cc3)cc2)cc1.Cc1ccc(S(=O)(=O)[O-])cc1.Cc1ccc(S(=O)(=O)[O-])cc1` returned a Rm of 0.46. For the same molecule, the “log(ILSmax)” value in the series with L1210 [2] was found to be 2.03. Moreover, the LD10 in the series on Mus musculus came out at 10 mg/kg. For the same molecule, the D40 in the series on L1210 [3] is 4.6 mg/kg.
In the case of `CC[n+]1cc(-c2ccc(NC(=O)/C=C/c3ccc(C(=O)Nc4ccc(-c5c[n+](CC)c(N)nc5N)cc4)cc3)cc2)c(N)nc1N.Cc1ccc(S(=O)(=O)[O-])cc1.Cc1ccc(S(=O)(=O)[O-])cc1`, the Rm in series [1] is -0.35. The “log(ILSmax)” value in the series with L1210 [2] turned out to be 2.23. This molecule displayed an LD10 with Mus musculus of 27 mg/kg. In addition, the D40 in the series on L1210 [3] came to 5.1 mg/kg.
